# Experimental data from BindingDB's records for doi:10.1074/jbc.M607913200 (Incyte, 2006).
# Target: T1, Tyrosine-protein phosphatase non-receptor type 1 [1-298] (Homo sapiens, UniProt P18031)
# T1 construct: 1-298
# T1 sequence (P18031 whole entry): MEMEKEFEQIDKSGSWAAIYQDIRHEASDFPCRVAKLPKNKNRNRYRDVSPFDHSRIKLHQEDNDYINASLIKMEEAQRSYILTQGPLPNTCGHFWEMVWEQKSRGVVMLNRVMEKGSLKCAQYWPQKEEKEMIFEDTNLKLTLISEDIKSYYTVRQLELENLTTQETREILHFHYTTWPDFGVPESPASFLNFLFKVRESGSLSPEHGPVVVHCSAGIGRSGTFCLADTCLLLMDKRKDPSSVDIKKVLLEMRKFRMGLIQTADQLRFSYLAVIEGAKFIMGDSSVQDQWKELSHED
# Assay: Phosphatase Inhibition Assay
row,IC50,Compound
1,0.2 µM,"O=C1CC(c2ccc(C[C@H](NC(=O)C(F)(F)c3ccccc3)c3nc4ccccc4[nH]3)cc2)S(=O)(=O)N1 (stereo partly drawn) [N-[(1S)-1-(1H-1,3-benzodiazol-2-yl)-2-[4-(1,1,3-trioxo-1,2-thiazolidin-5-yl)phenyl]ethyl]-2,2-difluoro-2-phenylacetamide]"
2,0.21 µM,"O=C1CC(c2ccc(C[C@H](NS(=O)(=O)c3cc(C(F)(F)F)ccc3C(F)(F)F)c3nc4ccccc4[nH]3)cc2)S(=O)(=O)N1 (stereo partly drawn) [N-[(1S)-1-(1H-1,3-benzodiazol-2-yl)-2-[4-(1,1,3-trioxo-1,2-thiazolidin-5-yl)phenyl]ethyl]-2,5-bis(trifluoromethyl)benzene-1-sulfonamide]"
3,0.22 µM,"O=C1CC(c2ccc(C[C@H](NS(=O)(=O)c3cccc(Oc4ccc(C(F)(F)F)cc4)c3)c3nc4ccccc4[nH]3)cc2)S(=O)(=O)N1 (stereo partly drawn) [N-[(1S)-1-(1H-1,3-benzodiazol-2-yl)-2-[4-(1,1,3-trioxo-1,2-thiazolidin-5-yl)phenyl]ethyl]-3-[4-(trifluoromethyl)phenoxy]benzene-1-sulfonamide]"
4,0.12 µM,"O=C1CC(c2ccc(C[C@H](NS(=O)(=O)c3ccc(Oc4ccncc4)cc3)c3nc4ccccc4[nH]3)cc2)S(=O)(=O)N1 (stereo partly drawn) [N-[(1S)-1-(1H-1,3-benzodiazol-2-yl)-2-[4-(1,1,3-trioxo-1,2-thiazolidin-5-yl)phenyl]ethyl]-4-(pyridin-4-yloxy)benzene-1-sulfonamide]"
